Active and inactive are the calls of the source.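 The calls were made as follows: active = IC50 on parental Ba/F3 cells at or below 10 µM; inactive = IC50 above 10 µM.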
Test system: parental Ba/F3 viability, CellTiter-Glo ATP luminescence
Experiment: cytotoxicity in parental murine Ba/F3 cells – cell-based, luminescence, counter-screen for JAK2V617F inhibitor project, dose response (AID 1699)

COc1ccc(Nc2nc(N)nc(CCl)n2)cc1
IC50: 2.66 µM

CC(C)C1C(C#N)=C(N)Oc2n[nH]c(-c3ccc4ccccc4c3)c21 (configuration not stated)
IC50: 3.56 µM

[O-][N+]1=c2ccc(Nc3ccccc3)cc2=NC12CCCCC2
IC50: 5.2 µM

Cc1[nH]c2ccccc2c(=O)c1C(=O)/C=C/c1ccccc1
IC50: 3.12 µM

COc1ccc(OC)c(NS(=O)(=O)c2ccc(SC)cc2)c1
IC50: 12.4 µM (inactive)

COc1ccc(-n2nnnc2SCC(=O)c2ccc(O)c(O)c2)cc1
IC50: 3.34 µM

COc1ccc2nc(C)cc(Sc3nc4ccccc4s3)c2c1
IC50: 6.96 µM

O=C(CSc1nnnn1-c1ccc(F)cc1)c1ccc(O)c(O)c1
IC50: 11.1 µM (inactive)

CCCCCCN(C(=O)CCl)c1ccccc1
IC50: 2.11 µM

Oc1ccc(Cl)cc1N=Cc1sc2ccccc2c1Cl
IC50: 5.94 µM

COc1ccccc1-c1nnc(Sc2nc([N+](=O)[O-])nn2C)o1
IC50: 4.65 µM

Cc1nc([N+](=O)[O-])c(Br)n1Cc1ccc(Cl)c(Cl)c1
IC50: 8.44 µM

Cc1[nH]c(=O)c(C(=O)/C=C/c2ccccc2F)c2c1CCCC2
IC50: 5.19 µM

O=C(/C=C/c1ccc(O)c(O)c1)c1ccc(S(=O)(=O)N2CCCCCC2)cc1
IC50: 7.51 µM

c1ccc2c(c1)CSc1sccc1C2=C1CCNCC1
IC50: 10.5 µM (inactive)

CCN(CC)S(=O)(=O)c1cccc(-n2c(O)c(C=Nc3ccccc3C(=O)O)c3ccccc3c2=O)c1
IC50: > 40 µM (inactive)

CNC(=O)c1nnsc1S(=O)c1ccc(Cl)cc1 (configuration not stated)
IC50: 2.26 µM

COc1ccc([N+](=O)[O-])c(S(=O)(=O)c2ccc(Cl)cc2)n1
IC50: 3.26 µM

Cc1ccccc1CS(=O)(=O)c1nnc([C@H](CC(C)C)NC(=O)OC(C)(C)C)o1
IC50: 1.68 µM

CCCC(=O)N(C1CC(C)C(C#N)(C#N)C1(C#N)C#N)N(C)C (configuration not stated)
IC50: 4.77 µM

Cc1oc2c(O)c(O)ccc2c(=O)c1-c1cnn(-c2ccccc2)c1
IC50: 2.97 µM

O=S(=O)(c1cnc(Cl)c(Br)c1)N1CCc2ccccc21
IC50: 5.31 µM

O=C(O)c1[nH]c(=O)[nH]c(=O)c1F
IC50: 6.87 µM

O=C(NC1C=CS(=O)(=O)C1)c1sc2ccccc2c1Cl (configuration not stated)
IC50: 13.8 µM (inactive)

CCCc1nc2ccccc2c(=O)n1/N=C/c1ccc(O)c(O)c1
IC50: 3.62 µM

COc1ccc(-c2cnc3c(c2)CCC3(C#N)C#N)cc1
IC50: 2.07 µM

Nc1nc(N)c2nc(-c3ccccc3)c(N)nc2n1
IC50: 4.61 µM

CC1CCCC(NC(=O)NC(=O)CCl)C1C (configuration not stated)
IC50: 10.6 µM (inactive)

CCCn1c(CN(C)Cc2ccccc2)nc2c1c(=O)n(C)c(=O)n2C
IC50: 8.17 µM

O=c1oc2ccc(Cl)cc2nc1/C=C(\O)c1ccco1
IC50: 8.35 µM

COc1ccccc1C(C[N+](=O)[O-])c1c(N)n(C)c(=O)n(C)c1=O (configuration not stated)
IC50: 6.49 µM

Cc1ccc(Cn2ccsc2=NC(=O)CCl)cc1
IC50: 7.76 µM

CCC(C)[C@@H](NC(=O)OC(C)(C)C)c1nnc(S(=O)(=O)Cc2cccc(C)c2)o1 (some centres not stated)
IC50: 4.67 µM

Nc1nc(CCl)nc(Nc2ccc3ccccc3c2)n1
IC50: 1.08 µM

O=C(Nc1cccc(NC(=O)c2cccs2)c1)c1ccc([N+](=O)[O-])o1
IC50: 3.7 µM

COc1ccc(-c2cc(-c3cc(C)ccc3O)[nH]n2)cc1
IC50: 8.76 µM

Cc1ccc(NC(=O)C(=Cc2ccc(C(=O)O)cc2)C(=O)Nc2ccc(C)cc2C)c(C)c1
IC50: 5.46 µM

CCOc1ccc(C(=O)C(CN2CCOCC2)c2ccccc2)cc1 (configuration not stated)
IC50: 2.4 µM

O=C1C=C(Nc2ccc(O)cc2)C(=O)c2ccccc21
IC50: 7.53 µM

CS(=O)(=O)c1nc(-c2ccco2)cc(C(F)(F)F)n1
IC50: 2.28 µM

O=C(OCn1ncc(Cl)c(Cl)c1=O)c1ccc(F)cc1
IC50: 1.14 µM

CN(c1ccccc1)S(=O)(=O)c1cccc(C(=O)NCCc2ccc(O)c(O)c2)c1
IC50: > 40 µM (inactive)

Cc1cc2[nH]c3c(c[n+](C)c4ccccc34)c2cc1C
IC50: 3.85 µM

O=C(CCl)NC(=O)NC12CC3CC(CC(C3)C1)C2
IC50: 4.37 µM

O=C1C=CCC(/C=C/c2ccccc2)O1 (configuration not stated)
IC50: 8.52 µM

O=C(Oc1cccc2c(O)cccc12)c1ccccc1
IC50: 6.51 µM

COc1cccc(N(C(=O)CCl)C(C(=O)NCCc2ccccc2)c2cccs2)c1 (configuration not stated)
IC50: 1.34 µM

COc1cc2c(cc1OC)-c1cc(N3CCCc4ccccc43)nc(=O)n1CC2
IC50: 35.6 µM (inactive)

O=C1C=CC(=O)N1CCNc1ncc(C(F)(F)F)cc1Cl
IC50: 1.76 µM

COC(=O)COc1cccc2c(=O)n(CC(=O)NCc3ccc(F)cc3)ccc12
IC50: 3.34 µM

CCCn1c(CC)nc([N+](=O)[O-])c1S(=O)(=O)c1ccccc1
IC50: 5.9 µM

COc1ccc(Nc2ccc3c(c2)=NC2(CCCCC2)[N+]=3[O-])cc1
IC50: 1.71 µM

CCOc1ccc(Nc2nc(N)nc(CCl)n2)cc1
IC50: 1.92 µM

O=C(CCl)NCc1cc(-c2ccc(Cl)cc2)no1
IC50: 8.35 µM

Cc1ccc(Nc2nc(N)nc(CCl)n2)cc1
IC50: 1.42 µM

CC1CCCN(CCCNC(=O)c2cc3c(Cl)nc4ccccc4c3s2)C1 (configuration not stated)
IC50: 3.5 µM

Cc1nc2c(=O)n(C)c(=O)n(C)c2nc1Cl
IC50: 4.55 µM

O=S(=O)(c1cccs1)N1CCN(c2ccc(O)cc2)CC1
IC50: 5.66 µM

Clc1ccc(-n2nnnc2Sc2ncnc3sccc23)cc1
IC50: 2.91 µM

Nc1nc(CCl)nc(N(c2ccccc2)c2ccccc2)n1
IC50: 1.26 µM

c1ccc(CCNc2nc(-c3ccccn3)nc3ccccc23)cc1
IC50: 3.02 µM

COc1ccc(C2=Nn3c(nnc3C3CCCCC3)SC2)cc1OC
IC50: 7.52 µM

CCN1C/C(=C/c2ccc(OC)c(O)c2)C(=O)/C(=C/c2ccc(OC)c(O)c2)C1
IC50: 1.5 µM

Cc1cccc(N(Cc2ccccc2)C(=O)CCl)c1
IC50: 1.63 µM

COc1ccc(N2CCc3c(C)nc4c(OC)cc(OC)cc4c32)c(OC)c1
IC50: 8.32 µM

CC(C)(C)OC(=O)N[C@@H](Cc1ccccc1)c1nnc(S(=O)(=O)Cc2cccc(F)c2)o1
IC50: 3.74 µM

CCCOc1ccc(C(=O)C(CN2CCOCC2)c2ccccc2)cc1 (configuration not stated)
IC50: 2.46 µM

c1ccc2c(CN3CCCCCC3)c[nH]c2c1
IC50: 10.7 µM (inactive)

COC1(OC)C(/C=C/c2ccc(Cl)cc2)C(C#N)(C#N)C1(OC)OC (configuration not stated)
IC50: 7.83 µM

O=C(C=C=Nc1ccccc1)C(=O)N=C=Cc1ccccc1
IC50: 10.7 µM (inactive)

O=C(CCl)N=c1sccn1Cc1ccc(Cl)cc1Cl
IC50: 0.653 µM

O=C(Nc1cccc2c1[nH]c1ccccc12)C(F)(F)F
IC50: 13.7 µM (inactive)

O=C1/C(=C/c2ccc(O)c(O)c2)SC(=S)N1Nc1ccccc1
IC50: 11 µM (inactive)

O=S(=O)(c1cnc(Cl)c(Cl)c1)N1CCc2ccccc21
IC50: 15.8 µM (inactive)

CC(C)(C)c1cc(NC(=O)CCl)n(-c2ccccc2)n1
IC50: 3.76 µM

O=C(/C(=N/N=C/c1ccc(O)c(O)c1)c1ccccc1)c1ccccc1
IC50: 1.67 µM

CC1CCN(CCCNC(=O)c2cc3c(Cl)nc4ccccc4c3s2)CC1
IC50: 4.39 µM

Cc1ccc(C)c(Sc2ccc(NC(=O)CCl)cc2)c1
IC50: 7.25 µM

O=C(OCn1ncc(Cl)c(Cl)c1=O)c1ccccc1Cl
IC50: 1.2 µM

Cc1c(Cc2ccccc2)c(=O)oc2c(O)c(O)ccc12
IC50: 8.62 µM

Cc1nn(Cc2ccc(Cl)cc2Cl)c(C)c1NC(=O)CCl
IC50: 11.4 µM (inactive)

O=c1cnn([C@@H]2O[C@H](CO)[C@@H](O)[C@H]2O)c(=O)[nH]1
IC50: 6.8 µM

Oc1ccc(/C=N/N2CCN(C3c4ccccc4-c4ccccc43)CC2)cc1O
IC50: 5.68 µM

Cc1nc([N+](=O)[O-])c(Br)n1CC(=O)c1ccc2ccccc2c1
IC50: 3.68 µM

N#C/C(=C\c1ccc(O)c(O)c1)C(=O)NCCCc1ccccc1
IC50: 6.01 µM

COC(=O)/C=C/c1ccc(OC(=O)OC)c(OC(=O)OC)c1
IC50: 10.7 µM (inactive)

Cc1cccc(NC(=O)c2ccc([N+](=O)[O-])o2)c1
IC50: 6.88 µM

O=C(CCl)N=c1sccn1Cc1cccc2ccccc12
IC50: 1.04 µM

O=C(CCl)N=c1sccn1Cc1ccccc1Cl
IC50: 1.11 µM

COc1cccc(F)c1C(C[N+](=O)[O-])c1c(N)n(C)c(=O)n(C)c1=O (configuration not stated)
IC50: 4.22 µM

Oc1ccccc1OCCOc1ccccc1OCCOc1ccccc1O
IC50: 7.12 µM

C#CCSc1nsc(SCC#C)c1C#N
IC50: 2.83 µM

Cc1cccc(OCC(=O)Nc2cc(C)ccc2O)c1
IC50: > 40 µM (inactive)

COc1ccccc1N(C(=O)CCl)c1cn(C(C)=O)c2ccccc12
IC50: 4.61 µM

Cc1cccc(Nc2nc(N)nc(CCl)n2)c1C
IC50: 2.07 µM

CN(C)C(=S)SSC(=S)N(C)C
IC50: 0.223 µM

Cc1ccccc1CS(=O)(=O)c1nnc([C@H](Cc2ccccc2)NC(=O)OC(C)(C)C)o1
IC50: 5.33 µM

O=C(CCl)N(C/C=C/c1ccccc1)c1ccc2c(c1)OCCO2
IC50: 2.51 µM

CC(C)(C)/C(O)=C/c1nc2cc(Cl)ccc2oc1=O
IC50: 9.55 µM

Cc1ccc2nc(C)cc(Nc3ccc([N+](=O)[O-])cc3)c2c1
IC50: 3.31 µM

COc1cccc(/C=N/NC(=O)c2[nH]c(C)c(C(=O)N/N=C/c3cccc(OC)c3O)c2C)c1O
IC50: 6.66 µM

Cc1cccc(CS(=O)(=O)c2nnc([C@H](Cc3ccccc3)NC(=O)OC(C)(C)C)o2)c1
IC50: 3.64 µM

Cc1cc(SCC(=O)N/N=C/c2ccc(O)c(O)c2)c(C)cc1Br
IC50: 10.7 µM (inactive)

Cc1nn2c(NCc3ccccn3)c3c(nc2c1-c1ccccc1)CCC3
IC50: 4.28 µM

COc1cc(/C=C2\COC/C(=C\c3ccc(O)c(OC)c3)C2=O)ccc1O
IC50: 3.62 µM

CCCCn1c(=N)n(CC(=O)c2ccc(Br)s2)c2ccccc21
IC50: 4.37 µM

C/C(=C\c1ccc(N(C)C)cc1)[N+](=O)[O-]
IC50: 3.5 µM

Reference: PubChem BioAssay AID1699 (The Scripps Research Institute Molecular Screening Center, 2009)
